The subject of test [1] is HIV-1IIIB. Put plainly: HIV-1 antiviral cytoprotection assay in CEM-SS cells. The class given is cell-based. As for the experimental part:
Antiviral efficacy of SA-101A and SA-101B compounds were evaluated in an HIV 1 antiviral cytoprotection assay using CEM-SS cells and the laboratory adapted HIV 1IIIB virus strain.
Compound preparation. Compounds SA-101A and SA-101B were prepared in powder form and solubilized in DMSO and stored at −20° C. AZT (Sigma), solubilized in sterile H2O, was used as a positive antiviral control and was stored at 4° C. The compounds were evaluated at a high test concentration of 500 μg/mL. AZT was run in parallel at a concentration of 500 nM.
Cell Preparation. CEM-SS cells were passaged in T-75 flasks prior to use in the antiviral assay. On the day preceding the assay, the cells were split 1:2 to assure they were in an exponential growth phase at the time of infection. Total cell and viability quantification was performed using a hemacytometer and trypan blue exclusion. Cell viability was greater than 95% for the cells to be utilized in the assay. […]
Virus Preparation. […] The virus was resuspended and diluted into tissue culture medium such that the amount of virus added to each well in a volume of 50 μl was the amount determined to give approximately 90% cell killing at 6 days post-infection.
MTS Staining for Cell Viability. At assay termination, the assay plates were stained with the soluble tetrazolium-based dye MTS (Cell Titer Reagent Promega) to determine cell viability and quantify compound toxicity. […]

Test [2] has as its system HCV RNA replicon. Put plainly: HCV RNA replicon luciferase assay. Format: cell-based. The procedure:
Compounds SA-101A and SA-101B were evaluated for their effect on HCV RNA replicons using an in vitro HCV virus replication system.
Compound preparation. Compounds were prepared as a powder (˜1 mg) and solubilized in DMSO. IFNα was used as a positive antiviral control.
HCV RNA replicon system. The assay for HCV replication employed cell line ET (luc-ubi-neo/ET), which is a human Huh7 hepatoma cell line that contains an HCV RNA replicon with a stable luciferase (Luc) reporter and three cell culture-adaptive mutations (Pietschmann et al., 2002, J. Virol. 76:4008-4021). […]
Luciferase assay. […] Compound IC50 and IC90 values (antiviral activity) are derived from plots of HCV RNA levels assessed as HCV RNA replicon-derived Luc activity versus drug concentration using Steady-Glo assay reagent (Promega), with Luc luminescence read on a 1450 Microbeta liquid scintillation and luminescence counter. Compound TC50 and TC90 values (cytotoxicity) are calculated from plots of cell number vs. drug concentration using data from the CytoTox-ONE cell proliferation assay (Promega); with fluorescence read using an Analyst HT fluorometer. […] Compound selectivity indices (SI=TC/IC) SI50 and SI90 values are calculated from spreadsheets.

Molecules are shown by their SMILES. ≈ marks a conversion by molar mass, not a printed value. Read-outs that look alike come from different tables or passages of the source.

Usually IC50 stands for the concentration at which inhibition is half-maximal. As to `CC(=O)O[C@@]12C[C@@H](C)[C@@]3(O)[C@@H](C=C(CO)C[C@]4(O)C(=O)C(C)=C[C@@H]34)[C@@H]1C2(C)C` [SA-101A, 12-deoxyphorbol 13-acetate], the IC50 in test [1] (Human immunodeficiency virus 1, read-out: IC50) is 0.086 µg/mL (≈ 0.22 µM). Besides, the “Inhibition of HCV RNA replicon associated luciferase activity” value in test [2] (lowest concentrations employed in the assay) is “greater than 50%”.
For the compound `CC(=O)OC12CC(C)C3(O)C(C=C(COC(=O)CCC(=O)O)CC4(O)C(=O)C(C)=CC43)C1C2(C)C` (stereo not shown) [SA-101B, Prostratin Succinate], the IC50 result in test [1] is given as “did not achieve an IC50 value”. The “EC50 (HCV RNA replicon)” value in test [2] (ET cell line, luciferase, 72 hr) is on record as “EC50 was not reached”.

These data come from patent publication US8022103B2, “Ester prodrugs of prostratin and related phorbol compounds” (Salvia Sciences, Inc., priority 2005, dated 2011).
